# Test system: Escherichia coli
# Assay: Antibacterial activity against Escherichia coli K-12 W3110 by microdilution method
# Type: functional
# Details: K-12 substr. W3110
row,SMILES,MIC [µM]
1,Cc1cn([C@H]2CN(P(=O)(OC[C@@H]3CN(P(=O)(OC[C@@H]4CN(P(=O)(OC[C@@H]5CN(P(=O)(OC[C@@H]6CN(P(=O)(OC[C@@H]7CN(P(=O)(OC[C@@H]8CN(P(=O)(OC[C@@H]9CN(P(=O)(OC[C@@H]%10CNC[C@H](n%11cnc%12c(=O)[nH]c(N)nc%12%11)O%10)N(C)C)C[C@H](n%10cc(C)c(=O)[nH]c%10=O)O9)N(C)C)C[C@H](n9cnc%10c(=O)[nH]c(N)nc%109)O8)N(C)C)C[C@H](n8cnc9c(N)ncnc98)O7)N(C)C)C[C@H](n7cc(C)c(=O)[nH]c7=O)O6)N(C)C)C[C@H](n6cnc7c(N)ncnc76)O5)N(C)C)C[C@H](n5cnc6c(=O)[nH]c(N)nc65)O4)N(C)C)C[C@H](n4ccc(N)nc4=O)O3)N(C)C)C[C@@H](COP(=O)(N(C)C)N3C[C@@H](COP(=O)(N(C)C)N4C[C@@H](COP(=O)(N(C)C)N5CCN(C(=O)CCNC(=O)CCCCCNC(=O)[C@@H](N)CCCNC(=O)CCCCCNC(=O)[C@@H](N)CCCNC(=O)[C@@H](N)CCCNC(=O)CCCCCNC(=O)[C@@H](N)CCCNC(=O)[C@@H](N)CCCNC(=O)CCCCCNC(=O)[C@@H](N)CCCNC(=O)[C@@H](N)CCCNC(=O)CCCCCNC(=O)[C@@H](N)CCCN)CC5)O[C@@H](n5ccc(N)nc5=O)C4)O[C@@H](n4cc(C)c(=O)[nH]c4=O)C3)O2)c(=O)[nH]c1=O (stereo partly drawn),10
2,Cc1cn([C@H]2CN(P(=O)(OC[C@@H]3CN(P(=O)(OC[C@@H]4CN(P(=O)(OC[C@@H]5CN(P(=O)(OC[C@@H]6CN(P(=O)(OC[C@@H]7CN(P(=O)(OC[C@@H]8CN(P(=O)(OC[C@@H]9CN(P(=O)(OC[C@@H]%10CNC[C@H](n%11cnc%12c(=O)[nH]c(N)nc%12%11)O%10)N(C)C)C[C@H](n%10cc(C)c(=O)[nH]c%10=O)O9)N(C)C)C[C@H](n9cnc%10c(=O)[nH]c(N)nc%109)O8)N(C)C)C[C@H](n8cnc9c(N)ncnc98)O7)N(C)C)C[C@H](n7cc(C)c(=O)[nH]c7=O)O6)N(C)C)C[C@H](n6cnc7c(N)ncnc76)O5)N(C)C)C[C@H](n5cnc6c(=O)[nH]c(N)nc65)O4)N(C)C)C[C@H](n4ccc(N)nc4=O)O3)N(C)C)C[C@@H](COP(=O)(N(C)C)N3C[C@@H](COP(=O)(N(C)C)N4C[C@@H](COP(=O)(N(C)C)N5CCN(C(=O)CCNC(=O)CCCCCNC(=O)[C@H](Cc6ccccc6)NC(=O)[C@H](Cc6ccccc6)NC(=O)[C@@H](N)CCCNC(=N)N)CC5)O[C@@H](n5ccc(N)nc5=O)C4)O[C@@H](n4cc(C)c(=O)[nH]c4=O)C3)O2)c(=O)[nH]c1=O (stereo partly drawn),> 80
3,Cc1cn([C@H]2CN(P(=O)(OC[C@@H]3CN(P(=O)(OC[C@@H]4CN(P(=O)(OC[C@@H]5CN(P(=O)(OC[C@@H]6CN(P(=O)(OC[C@@H]7CN(P(=O)(OC[C@@H]8CN(P(=O)(OC[C@@H]9CN(P(=O)(OC[C@@H]%10CNC[C@H](n%11cnc%12c(=O)[nH]c(N)nc%12%11)O%10)N(C)C)C[C@H](n%10cc(C)c(=O)[nH]c%10=O)O9)N(C)C)C[C@H](n9cnc%10c(=O)[nH]c(N)nc%109)O8)N(C)C)C[C@H](n8cnc9c(N)ncnc98)O7)N(C)C)C[C@H](n7cc(C)c(=O)[nH]c7=O)O6)N(C)C)C[C@H](n6cnc7c(N)ncnc76)O5)N(C)C)C[C@H](n5cnc6c(=O)[nH]c(N)nc65)O4)N(C)C)C[C@H](n4ccc(N)nc4=O)O3)N(C)C)C[C@@H](COP(=O)(N(C)C)N3C[C@@H](COP(=O)(N(C)C)N4C[C@@H](COP(=O)(N(C)C)N5CCN(C(=O)CCNC(=O)CCCCCNC(=O)[C@@H](N)CCCNC(=O)CCCCCNC(=O)[C@@H](N)CCCNC(=O)CCCCCNC(=O)[C@@H](N)CCCNC(=O)CCCCCNC(=O)[C@@H](N)CCCNC(=O)CCCCCNC(=O)[C@@H](N)CCCNC(=O)CCCCCNC(=O)[C@@H](N)CCCN)CC5)O[C@@H](n5ccc(N)nc5=O)C4)O[C@@H](n4cc(C)c(=O)[nH]c4=O)C3)O2)c(=O)[nH]c1=O (stereo partly drawn),> 80
4,Cc1cn([C@H]2CN(P(=O)(OC[C@@H]3CN(P(=O)(OC[C@@H]4CN(P(=O)(OC[C@@H]5CN(P(=O)(OC[C@@H]6CN(P(=O)(OC[C@@H]7CN(P(=O)(OC[C@@H]8CN(P(=O)(OC[C@@H]9CN(P(=O)(OC[C@@H]%10CNC[C@H](n%11cnc%12c(=O)[nH]c(N)nc%12%11)O%10)N(C)C)C[C@H](n%10cc(C)c(=O)[nH]c%10=O)O9)N(C)C)C[C@H](n9cnc%10c(=O)[nH]c(N)nc%109)O8)N(C)C)C[C@H](n8cnc9c(N)ncnc98)O7)N(C)C)C[C@H](n7cc(C)c(=O)[nH]c7=O)O6)N(C)C)C[C@H](n6cnc7c(N)ncnc76)O5)N(C)C)C[C@H](n5cnc6c(=O)[nH]c(N)nc65)O4)N(C)C)C[C@H](n4ccc(N)nc4=O)O3)N(C)C)C[C@@H](COP(=O)(N(C)C)N3C[C@@H](COP(=O)(N(C)C)N4C[C@@H](COP(=O)(N(C)C)N5CCN(C(=O)CCNC(=O)CCCCCNC(=O)[C@H](CCCCN)NC(=O)CCCCCNC(=O)[C@H](CCCCN)NC(=O)CCCCCNC(=O)[C@H](CCCCN)NC(=O)CCCCCNC(=O)[C@H](CCCCN)NC(=O)CCCCCNC(=O)[C@H](CCCCN)NC(=O)CCCCCNC(=O)[C@@H](N)CCCCN)CC5)O[C@@H](n5ccc(N)nc5=O)C4)O[C@@H](n4cc(C)c(=O)[nH]c4=O)C3)O2)c(=O)[nH]c1=O (stereo partly drawn),> 80

# Second part, the compound after the results:
row,MIC [µM],SMILES
1,2.5,Cc1cn([C@H]2CN(P(=O)(OC[C@@H]3CN(P(=O)(OC[C@@H]4CN(P(=O)(OC[C@@H]5CN(P(=O)(OC[C@@H]6CN(P(=O)(OC[C@@H]7CN(P(=O)(OC[C@@H]8CN(P(=O)(OC[C@@H]9CN(P(=O)(OC[C@@H]%10CNC[C@H](n%11cnc%12c(=O)[nH]c(N)nc%12%11)O%10)N(C)C)C[C@H](n%10cc(C)c(=O)[nH]c%10=O)O9)N(C)C)C[C@H](n9cnc%10c(=O)[nH]c(N)nc%109)O8)N(C)C)C[C@H](n8cnc9c(N)ncnc98)O7)N(C)C)C[C@H](n7cc(C)c(=O)[nH]c7=O)O6)N(C)C)C[C@H](n6cnc7c(N)ncnc76)O5)N(C)C)C[C@H](n5cnc6c(=O)[nH]c(N)nc65)O4)N(C)C)C[C@H](n4ccc(N)nc4=O)O3)N(C)C)C[C@@H](COP(=O)(N(C)C)N3C[C@@H](COP(=O)(N(C)C)N4C[C@@H](COP(=O)(N(C)C)N5CCN(C(=O)CCNC(=O)CCCCCNC(=O)[C@H](CCCNC(=N)N)NC(=O)CCNC(=O)[C@H](CCCNC(=N)N)NC(=O)[C@H](CCCNC(=N)N)NC(=O)CCCCCNC(=O)[C@H](CCCNC(=N)N)NC(=O)NC(=O)[C@H](CCCNC(=N)N)NC(=O)CCNC(=O)[C@H](CCCNC(=N)N)NC(=O)[C@H](CCCNC(=N)N)NC(=O)CCCCCNC(=O)[C@@H](N)CCCNC(=N)N)CC5)O[C@@H](n5ccc(N)nc5=O)C4)O[C@@H](n4cc(C)c(=O)[nH]c4=O)C3)O2)c(=O)[nH]c1=O (stereo partly drawn)
2,5,Cc1cn([C@H]2CN(P(=O)(OC[C@@H]3CN(P(=O)(OC[C@@H]4CN(P(=O)(OC[C@@H]5CN(P(=O)(OC[C@@H]6CN(P(=O)(OC[C@@H]7CN(P(=O)(OC[C@@H]8CN(P(=O)(OC[C@@H]9CN(P(=O)(OC[C@@H]%10CNC[C@H](n%11cnc%12c(=O)[nH]c(N)nc%12%11)O%10)N(C)C)C[C@H](n%10cc(C)c(=O)[nH]c%10=O)O9)N(C)C)C[C@H](n9cnc%10c(=O)[nH]c(N)nc%109)O8)N(C)C)C[C@H](n8cnc9c(N)ncnc98)O7)N(C)C)C[C@H](n7cc(C)c(=O)[nH]c7=O)O6)N(C)C)C[C@H](n6cnc7c(N)ncnc76)O5)N(C)C)C[C@H](n5cnc6c(=O)[nH]c(N)nc65)O4)N(C)C)C[C@H](n4ccc(N)nc4=O)O3)N(C)C)C[C@@H](COP(=O)(N(C)C)N3C[C@@H](COP(=O)(N(C)C)N4C[C@@H](COP(=O)(N(C)C)N5CCN(C(=O)CCNC(=O)CCCCCNC(=O)[C@@H](Cc6ccccc6)NC(=O)[C@@H](Cc6ccccc6)NC(=O)[C@@H](CCCNC(=N)N)NC(=O)[C@@H](Cc6ccccc6)NC(=O)[C@@H](Cc6ccccc6)NC(=O)[C@@H](CCCNC(=N)N)NC(=O)[C@@H](Cc6ccccc6)NC(=O)[C@H](Cc6ccccc6)NC(=O)[C@H](N)CCCNC(=N)N)CC5)O[C@@H](n5ccc(N)nc5=O)C4)O[C@@H](n4cc(C)c(=O)[nH]c4=O)C3)O2)c(=O)[nH]c1=O (stereo partly drawn)
3,20,Cc1cn([C@H]2CN(P(=O)(OC[C@@H]3CN(P(=O)(OC[C@@H]4CN(P(=O)(OC[C@@H]5CN(P(=O)(OC[C@@H]6CN(P(=O)(OC[C@@H]7CN(P(=O)(OC[C@@H]8CN(P(=O)(OC[C@@H]9CN(P(=O)(OC[C@@H]%10CNC[C@H](n%11cnc%12c(=O)[nH]c(N)nc%12%11)O%10)N(C)C)C[C@H](n%10cc(C)c(=O)[nH]c%10=O)O9)N(C)C)C[C@H](n9cnc%10c(=O)[nH]c(N)nc%109)O8)N(C)C)C[C@H](n8cnc9c(N)ncnc98)O7)N(C)C)C[C@H](n7cc(C)c(=O)[nH]c7=O)O6)N(C)C)C[C@H](n6cnc7c(N)ncnc76)O5)N(C)C)C[C@H](n5cnc6c(=O)[nH]c(N)nc65)O4)N(C)C)C[C@H](n4ccc(N)nc4=O)O3)N(C)C)C[C@@H](COP(=O)(N(C)C)N3C[C@@H](COP(=O)(N(C)C)N4C[C@@H](COP(=O)(N(C)C)N5CCN(C(=O)CCNC(=O)CCCCCNC(=O)CCCCCNC(=O)[C@H](CCCNC(=N)N)NC(=O)CCCCCNC(=O)CCCCCNC(=O)[C@H](CCCNC(=N)N)NC(=O)CCCCCNC(=O)CCCCCNC(=O)[C@@H](N)CCCNC(=N)N)CC5)O[C@@H](n5ccc(N)nc5=O)C4)O[C@@H](n4cc(C)c(=O)[nH]c4=O)C3)O2)c(=O)[nH]c1=O (stereo partly drawn)
4,20,Cc1cn([C@H]2CN(P(=O)(OC[C@@H]3CN(P(=O)(OC[C@@H]4CN(P(=O)(OC[C@@H]5CN(P(=O)(OC[C@@H]6CN(P(=O)(OC[C@@H]7CN(P(=O)(OC[C@@H]8CN(P(=O)(OC[C@@H]9CN(P(=O)(OC[C@@H]%10CNC[C@H](n%11cnc%12c(=O)[nH]c(N)nc%12%11)O%10)N(C)C)C[C@H](n%10cc(C)c(=O)[nH]c%10=O)O9)N(C)C)C[C@H](n9cnc%10c(=O)[nH]c(N)nc%109)O8)N(C)C)C[C@H](n8cnc9c(N)ncnc98)O7)N(C)C)C[C@H](n7cc(C)c(=O)[nH]c7=O)O6)N(C)C)C[C@H](n6cnc7c(N)ncnc76)O5)N(C)C)C[C@H](n5cnc6c(=O)[nH]c(N)nc65)O4)N(C)C)C[C@H](n4ccc(N)nc4=O)O3)N(C)C)C[C@@H](COP(=O)(N(C)C)N3C[C@@H](COP(=O)(N(C)C)N4C[C@@H](COP(=O)(N(C)C)N5CCN(C(=O)CCNC(=O)CCCCCNC(=O)[C@H](CCCCN)NC(=O)CCCCNC(=O)[C@H](CCCCN)NC(=O)[C@H](CCCCN)NC(=O)CCCCNC(=O)[C@H](CCCCN)NC(=O)[C@H](CCCCN)NC(=O)CCCCNC(=O)[C@H](CCCCN)NC(=O)[C@H](CCCCN)NC(=O)CCCCNC(=O)[C@@H](N)CCCCN)CC5)O[C@@H](n5ccc(N)nc5=O)C4)O[C@@H](n4cc(C)c(=O)[nH]c4=O)C3)O2)c(=O)[nH]c1=O (stereo partly drawn)
